Drawing on patent publication US20020028836A1, “Potassium channel openers” (priority 2000, published 2002), this text covers EC50, Emax and melting point for 33 compounds.

The subject of data set [1] is primary cultured guinea-pig urinary bladder (GPB) cells. The experiment in a line: Membrane hyperpolarization (MHP) assay, DiBAC(4)3 / FLIPR. It is filed as cell-based. To be noted: Cavia porcellus. Summed up:
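Primary smooth-muscle cells from male guinea-pig bladder, grown to confluence, loaded 30 min at 37° C with 5 μM DiBAC(4)3 in HEPES buffer pH 7.4. Fluorescence drop on FLIPR followed 25 min after compound; steady-state hyperpolarization normalized to 10 μM P1075 (100%), EC50 from four-parameter fit of five concentrations.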

Broadly, the pEC50 is the EC50 on a negative log10 scale, so that one unit is a factor of ten. A higher pEC50 goes with a low EC50. A word on the Emax: it is the size of the effect at its maximum, as opposed to the concentration needed. A word on the melting point: it is the temperature, or range, at which the solid turns liquid.

pEC50: −log10 of the molar value.

Consider `CCC1(C(NC(=O)c2ccc(Cl)cc2)NC(=NC#N)Nc2cccnc2)COCOC1` (centres unmarked) [Example 101, 4-chloro-N-[{[(cyanoimino)(3-pyridinylamino)methyl]amino}(5-ethyl-1,3-dioxan-5-yl)methyl]benzamide], for which the melting point lay within 194 to 195 °C. The pEC50 in data set [1] (concentration that elicits 50% of the maximal response for the test sample) was 5.21. This compound also gave an Emax in data set [1] (maximal steady-state hyperpolarization, normalized to response with 10 μM P1075 (100%)) of 59%.
`CC(C)(C)CC(NC(=O)c1ccc(Cl)cc1)NC(=NS(=O)(=O)c1ccccc1)Nc1cccnc1` (centres unmarked) [Example 140, 4-chloro-N-(3,3-dimethyl-1-{[[(phenylsulfonyl)imino](3-pyridinylamino)methyl]amino}butyl)benzamide]: the melting point lay in the range of 199 to 200 °C.
The same measure, in the same setting: the value for `N#CN=C(Nc1cccnc1)NC(NC(=O)c1cccc(Cl)c1)C(F)(F)C(F)(F)F` (centres unmarked) [Example 122, 3-chloro-N-(1-{[(cyanoimino)(3-pyridinylamino)methyl]amino}-2,2,3,3,3-pentafluoropropyl)benzamide] was 183 to 185 °C.
Still for that read-out and setting: the value for `CC(C)(C)C(NC(=O)c1ccc(Cl)cc1)NC(=NC#N)Nc1cc(F)ccc1F` (centres unmarked) [Example 73, 4-chloro-N-(1-{[(cyanoimino)(2,5-difluoroanilino)methyl]amino}-2,2-dimethylpropyl)benzamide] was 196 to 198 °C; that for `CC(C)(C)C(NC(=O)c1ccc(Cl)cc1)NC(=NC#N)NCc1cccnc1` (centres unmarked) [Example 80, 4-chloro-N-[1-({(cyanoimino)[(3-pyridinylmethyl)amino]methyl}amino)-2,2-dimethylpropyl]benzamide] was 188 to 189 °C; that for `COc1ncccc1NC(=NC#N)NC(NC(=O)c1cc(F)cc(F)c1)C(C)(Cl)Cl` (centres unmarked) [Example 157, N-[2,2-dichloro-1-({(cyanoimino)[(2-methoxy-3-pyridinyl)amino]methyl}amino)propyl]-3,5-difluorobenzamide] was 125 to 126 °C.
Still for that read-out and setting: the value for `N#CN=C(Nc1cccnc1)NC(NC(=O)c1ccc(Cl)cc1)C1CC1` (centres unmarked) [Example 54, 4-chloro-N-[{[(cyanoimino)(3-pyridinylamino)methyl]amino}(cyclopropyl)methyl]benzamide] was 137 to 139 °C; that for `CC(Cl)(Cl)C(NC(=O)c1ccc(Cl)cc1)NC(=N[N+](=O)[O-])Nc1cccnc1` (centres unmarked) [Example 137, 4-chloro-N-(2,2-dichloro-1-{[(nitroimino)(3-pyridinylamino)methyl]amino}propyl)benzamide] was 170 to 172 °C; that for `CC(C)(C)C(NC(=O)c1ccc(Cl)cc1)NC(=NC#N)NCc1ccc(Cl)cc1` (centres unmarked) [Example 79, 4-chloro-N-(1-{[[(4-chlorobenzyl)amino](cyanoimino)methyl]amino}-2,2-dimethylpropyl)benzamide] was 173 to 175 °C.
In the case of `Cc1ccc(C(=O)NC(NC(=NC#N)Nc2cccc(F)c2)C(C)(C)C)cc1` (centres unmarked) [Example 53, N-(1-{[(cyanoimino)(3-fluoroanilino)methyl]amino}-2,2-dimethylpropyl)-4-methylbenzamide], the melting point lay in the range of 193 to 194 °C.
Same read-out and setting: the figure for `CC(C)(C)C(NC(=O)c1ccc(Cl)cc1)NC(=NS(=O)(=O)c1ccccc1)Nc1cccnc1` (centres unmarked) [Example 139, 4-chloro-N-(2,2-dimethyl-1-{[[(phenylsulfonyl)imino](3-pyridinylamino)methyl]amino}propyl)benzamide] is 196 to 197 °C.
The same measure, in the same setting: the figure for `CC(C)(C)C(NC(=O)c1ccc(Cl)cc1)NC(=NC#N)NCc1ccccc1Cl` (centres unmarked) [Example 77, 4-chloro-N-(1-{[[(2-chlorobenzyl)amino](cyanoimino)methyl]amino}-2,2-dimethylpropyl)benzamide] is 180 to 182 °C.
Same read-out and setting: the figure for `N#CN=C(Nc1cccc(F)c1)NC(NC(=O)c1ccc(Cl)cc1)c1ccsc1` (centres unmarked) [Example 56, 4-chloro-N-[{[(cyanoimino)(3-fluoroanilino)methyl]amino}(3-thienyl)methyl]benzamide] is 166 to 168 °C; for `CC(C)(C)C(NC(=O)c1ccc(Cl)cc1)NC(=NC#N)Nc1cc(F)cc(F)c1` (centres unmarked) [Example 72, 4-chloro-N-(1-{[(cyanoimino)(3,5-difluoroanilino)methyl]amino}-2,2-dimethylpropyl)benzamide] it is 196 to 198 °C; for `COc1ccc(NC(=NC#N)NC(NC(=O)c2cccc(Cl)c2)C(C)(Cl)Cl)cn1` (centres unmarked) [Example 182, 3-chloro-N-[2,2-dichloro-1-({(cyanoimino)[(6-methoxy-3-pyridinyl)amino]methyl}amino)propyl]benzamide] it is 189 to 190 °C.
Consider `CN(C(=NC#N)Nc1cccnc1)C(NC(=O)c1ccc(Cl)cc1)C(C)(C)C` (centres unmarked) [Example 111, 4-chloro-N-{1-[[(cyanoimino)(3-pyridinylamino)methyl](methyl)amino]-2,2-dimethylpropyl}benzamide], for which the melting point was in the range of 127 to 129 °C.
`CC(C)(C)C(NC(=O)c1ccc(Cl)cc1)NC(=NC#N)Nc1cccc(C(F)(F)F)c1` (centres unmarked) [Example 71, 4-chloro-N-[1-({(cyanoimino)[3-(trifluoromethyl)anilino]methyl}amino)-2,2-dimethylpropyl]benzamide] gave a melting point of 184 to 186 °C.
The same measure, in the same setting: the figure for `CC(C)(C)C(NC(=O)c1ccc(Cl)cc1)NC(=NC#N)Nc1c(F)cccc1F` (centres unmarked) [Example 74, 4-chloro-N-(1-{[(cyanoimino)(2,6-difluoroanilino)methyl]amino}-2,2-dimethylpropyl)benzamide] is 211 to 213 °C; for `COc1cc(OC)cc(C(=O)NC(NC(=NC#N)Nc2ccc(C(F)(F)F)nc2)C(C)(Cl)Cl)c1` (centres unmarked) [Example 183, N-{2,2-dichloro-1-[((cyanoimino){[6-(trifluoromethyl)-3-pyridinyl]amino}methyl)amino]propyl}-3,5-dimethoxybenzamide] it is 187 to 189 °C.
The same measure, in the same setting: the figure for `CC(C)(C)C(NC(=O)c1ccc(Cl)cc1)NC(=NC#N)NCc1ccccn1` (centres unmarked) [Example 82, 4-chloro-N-[1-({(cyanoimino)[(2-pyridinylmethyl)amino]methyl}amino)-2,2-dimethylpropyl]benzamide] is 184 to 185 °C; for `CC(C)(C)C(NC(=O)c1ccc(Cl)cc1)NC(=NC#N)NCc1cccc(Cl)c1` (centres unmarked) [Example 78, 4-chloro-N-(1-{[[(3-chlorobenzyl)amino](cyanoimino)methyl]amino}-2,2-dimethylpropyl)benzamide] it is 178 to 180 °C; for `N#CN=C(Nc1cccnc1)NC(NC(=O)c1ccc(I)cc1)C(Cl)(Cl)Cl` (centres unmarked) [Example 114, 4-iodo-N-(2,2,2-trichloro-1-{[(cyanoimino)(3-pyridinylamino)methyl]amino}ethyl)benzamide] it is 208 to 210 °C.
The same measure, in the same setting: the figure for `CC(C)(C)C(NC(=O)c1ccc(Cl)cc1)NC(=NC#N)NCc1ccncc1` (centres unmarked) [Example 81, 4-chloro-N-[1-({(cyanoimino)[(4-pyridinylmethyl)amino]methyl}amino)-2,2-dimethylpropyl]benzamide] is 189 to 191 °C; for `CC(C)(C)C(NC(=O)c1ccc(F)cc1)NC(=NC#N)Nc1cccnc1` (centres unmarked) [Example 107, N-(1-{[(cyanoimino)(3-pyridinylamino)methyl]amino}-2,2-dimethylpropyl)-4-fluorobenzamide] it is 195 to 196 °C; for `Cc1ccc(C(=O)NC(NC(=NC#N)Nc2ccc(Cl)nc2)C(C)(C)C)cc1` (centres unmarked) [Example 55, N-(1-{[[(6-chloro-3-pyridinyl)amino](cyanoimino)methyl]amino}-2,2-dimethylpropyl)-4-methylbenzamide] it is 194 to 196 °C.
For `COc1cccc(NC(=NC#N)NC(NC(=O)c2ccc(Cl)cc2)C(C)(C)C)c1` (centres unmarked) [Example 76, 4-chloro-N-(1-{[(cyanoimino)(3-methoxyanilino)methyl]amino}-2,2-dimethylpropyl)benzamide], the melting point fell in the range of 173 to 175 °C.
Take `CC(Cl)(Cl)C(NC(=O)c1cc(Cl)cc(Cl)c1)NC(=NS(=O)(=O)C(F)(F)F)Nc1cccnc1` (centres unmarked) [Example 190, 3,5-dichloro-N-{2,2-dichloro-1-[((3-pyridinylamino){[(trifluoromethyl)sulfonyl]imino}methyl)amino]propyl}benzamide]: the melting point lay within 213 to 215 °C.
The same measure, in the same setting: the value for `CC(Cl)(Cl)C(NC(=O)c1cccc(Cl)c1)NC(=N[N+](=O)[O-])Nc1cccnc1` (centres unmarked) [Example 138, 3-chloro-N-(2,2-dichloro-1-{[(nitroimino)(3-pyridinylamino)methyl]amino}propyl)benzamide] was 160 to 161 °C; that for `CCCC(Cl)(Cl)C(NC(=O)c1ccc(Cl)cc1)NC(=C[N+](=O)[O-])Nc1cccnc1` (centres unmarked) [Example 151, 4-chloro-N-(2,2-dichloro-1-{[2-nitro-1-(3-pyridinylamino)ethenyl]amino}pentyl)benzamide] was 185 to 186 °C; that for `CCCC(Cl)(Cl)C(NC(=O)c1ccc(Cl)cc1)NC(=NC#N)Nc1cccnc1` (centres unmarked) [Example 115, 4-chloro-N-(2,2-dichloro-1-{[(cyanoimino)(3-pyridinylamino)methyl]amino}pentyl)benzamide] was 192 to 193 °C.
As to `CC(Cl)(Cl)C(NC(=O)c1ccc(C(F)(F)F)cc1)NC(=NS(=O)(=O)C(F)(F)F)Nc1cccnc1` (centres unmarked) [Example 191, N-{2,2-dichloro-1-[((3-pyridinylamino){[(trifluoromethyl)sulfonyl]imino}methyl)amino]propyl}-4-(trifluoromethyl)benzamide], the melting point lay within 214 to 215 °C.
On the same count and under the same terms, the value for `CC(Cl)(Cl)C(NC(=O)c1cccnc1)NC(=NC#N)Nc1ccc(Cl)nc1` (centres unmarked) [Example 193, N-(2,2-dichloro-1-{[[(6-chloro-3-pyridinyl)amino](cyanoimino)methyl]amino}propyl)nicotinamide] was 212 to 213 °C.
On the same count and under the same terms, the value for `CC(C)(C)C(NC(=O)c1ccc(Cl)cc1)NC(=NC#N)Nc1ccccc1F` (centres unmarked) [Example 69, 4-chloro-N-(1-{[(cyanoimino)(2-fluoroanilino)methyl]amino}-2,2-dimethylpropyl)benzamide] was 208 to 209 °C.
